Measurements: patent US11420935B2, “Bicyclic compounds” (Vivace Therapeutics, Inc., priority 2019, dated 2022)
pIC50: −log10 of the molar value.

Each compound was assayed on 8×TBD luciferase reporter (YAP) in HEK293T cells (assay: YAP Reporter Assay (8×TBD firefly luciferase reporter)). Conditions: Homo sapiens, HEK-293T; HEK293T cells stably transfected with 8×TBD luciferase reporter and pRLTK; 24-hr incubation; firefly luciferase activity; read-out: Firefly Luciferase IC50.
Type: cell-based
Method: HEK293T cells stably transfected with 8×TBD luciferase reporter and pRLTK in 384-well plates were treated with the test compounds, starting from 3 μM (final concentration in assay plate), 1:3 dilution, and 10 points in quadruplicates. Post 24-hr incubation with compounds at 37° C. and 5% CO2, cells were lysed and 8×TBD-driven firefly luciferase and control TK-driven renilla luciferase activities were measured using Promega Dual-Luciferase Reporter Assay System.
Reagents: The reagents used for this study are: DMEM: Invitrogen #11960077, Dual-Glo Luciferase Assay System: Promega-E2980, Puromycin Dihydrochloride: Invitrogen-A1113803, 384-well plate: PerkinElmer-6007480, L-GLUTAMINE: Invitrogen-25030164, Hygromycin B: Invitrogen-10687010, and Penicillin-Streptomycin: Merk-TMS-AB2-C
Media: The media used for this assay were: Culture Medium: DMEM+1 ug/mL puromycin+200 ug/mL hygromycin (with 10% FBS+1 mM L-glutamine); and Assay Medium: DMEM (with 10% FBS+1 mM L-glutamine+1×P/S).
Cell Plating: The appropriate media was warmed at 37° C. by water bath: Culture Medium, Assay Medium, 1*D-PBS, 0.05% trypsin-EDTA. The cells were trypsinized after removing all media, then washed with 1*sterile D-PBS and then with 2 ml 0.05% trypsin-EDTA. The cells were then incubated at RT for one minute. Then 10 ml/75 cm2 flask Assay Medium was added to each flask. Using a 10 ml pipette, the cells were then gently resuspended in the media, until the clumps completely disappeared. The cells were then transferred into 50 ml centrifuge tubes and were centrifuged at 800 rpm for 5 mins. The medium was removed and the cells were resuspended with Assay Medium. An aliquot of cells was used to count the cell density (cells/ml). The cell suspension was then diluted with Assay Medium to a concentration of 6×10^4 cells/ml. 50 ul cells suspension was then plated to 384-well plate (PerkinElmer-6007480), 3×10^3 cells/well and the cells were incubated in an incubator at 37° C., 5% CO2.
Compound Treatment: In the afternoon (incubation of the plate with 3-4 hrs), the test compounds were added by Echo, starting from 3 uM (final concentration in the assay plate), 1:3 dilution, 10 points, quadruplicates. The plate was placed at 37° C., 5% CO2 incubator for 24 hrs.
Detection: The Dual-Glo Luciferase Reagent was prepared by transferring the contents of one bottle of Dual-Glo Luciferase Buffer to one bottle of Dual-Glo Luciferase Substrate to create the Dual-Glo Luciferase Reagent. Mixing was performed by inversion until the substrate was thoroughly dissolved. After mixing, the reagent was aliquoted into 15 ml tubes. In the afternoon (24 hrs post compound treatment), the DMEM+medium in the 384 well plates were aspirated by Microplate Washer.
Measuring firefly luciferase activity: 20 ul Dual-Glo Luciferase Reagent was added to the 384-well plates. The plates were protected from light to prevent interference with the assay. The plates were shaken for 1 min followed centrifuging plates at 1000 rpm for 30 seconds. After waiting at least 10 minutes, the firefly luminescence was measured by Envision.
Measuring renilla luciferase activity: 20 ul Stop-Glo Reagent was added to the 384-well plates. The plates were shaken for 1 min and then centrifuged at 1000 rpm for 30 seconds. After waiting at least 10 minutes, the renilla luminescence was measured by Envision.
Compound IC50 and maximum inhibition on the firefly luciferase and renilla luciferase activities were reported separately.

| Compound | pIC50 |
| --- | --- |
| CN(C#N)CCCNC(=O)c1ccc2c(Oc3ccc(C(F)(F)F)cc3)cccc2c1 [Compound 35, N-(3-(N-methylcyanamido)propyl)-5-(4-(trifluoromethyl)phenoxy)-2-naphthamide] | > 7.00 |
| O=C(NC1(c2ccccc2)CC1)c1ccc2c(Oc3ccc(C(F)(F)F)cc3)cccc2c1 [Compound 36, N-(1-phenylcyclopropyl)-5-[4-(trifluoromethyl)phenoxy]naphthalene-2-carboxamide] | > 7.00 |
| O=C(NC1(c2ccccc2)COC1)c1ccc2c(Oc3ccc(C(F)(F)F)cc3)cccc2c1 [Compound 37, N-(3-phenyloxetan-3-yl)-5-(4-(trifluoromethyl)phenoxy)-2-naphthamide] | > 7.00 |
| C[C@@H](NC(=O)c1ccc2c(Oc3ccc(C(F)(F)F)cc3)cccc2c1)C1CC1 [Compound 38, (R)—N-(1-cyclopropylethyl)-5-(4-(trifluoromethyl)phenoxy)-2-naphthamide] | > 7.00 |
| C[C@H](NC(=O)c1ccc2c(Oc3ccc(C(F)(F)F)cc3)cccc2c1)C1CC1 [Compound 39, (S)—N-(1-cyclopropylethyl)-5-(4-(trifluoromethyl)phenoxy)-2-naphthamide] | > 7.00 |
| C[C@@H](NC(=O)c1ccc2c(Oc3ccc(C(F)(F)F)cc3)cccc2c1)C1COC1 [Compound 40, (R)—N-(1-(oxetan-3-yl)ethyl)-5-(4-(trifluoromethyl)phenoxy)-2-naphthamide] | > 7.00 |
| C[C@H](NC(=O)c1ccc2c(Oc3ccc(C(F)(F)F)cc3)cccc2c1)C1COC1 [Compound 41, (S)—N-(1-(oxetan-3-yl)ethyl)-5-(4-(trifluoromethyl)phenoxy)-2-naphthamide] | > 7.00 |
| COc1cc(Oc2ccc(C(F)(F)F)cc2)c2ncc(C(=O)N[C@H](C)c3ccccn3)cc2c1 [Compound 42, (R)-6-methoxy-N-(1-(pyridin-2-yl)ethyl)-8-(4-(trifluoromethyl)phenoxy)quinoline-3-carboxamide] | 6.00 to 7.00 |
| COc1cc(Oc2ccc(C(F)(F)F)cc2)c2ncc(C(=O)N[C@@H](C)c3ccccn3)cc2c1 [Compound 43, (S)-6-methoxy-N-(1-(pyridin-2-yl)ethyl)-8-(4-(trifluoromethyl)phenoxy)quinoline-3-carboxamide] | > 7.00 |
| COC[C@@H](C)NC(=O)c1cnc2c(Oc3ccc(C(F)(F)F)cc3)cc(OC)cc2c1 [Compound 44, (R)-6-methoxy-N-(1-methoxypropan-2-yl)-8-(4-(trifluoromethyl)phenoxy)quinoline-3-carboxamide] | > 7.00 |
| COC[C@H](C)NC(=O)c1cnc2c(Oc3ccc(C(F)(F)F)cc3)cc(OC)cc2c1 [Compound 45, (S)-6-methoxy-N-(1-methoxypropan-2-yl)-8-(4-(trifluoromethyl)phenoxy)quinoline-3-carboxamide] | > 7.00 |
| C[C@@H](NC(=O)c1ccc2c(Oc3ccc(C(F)(F)F)cc3)cccc2c1)c1cnccn1 [Compound 46, (R)—N-(1-(pyrazin-2-yl)ethyl)-5-(4-(trifluoromethyl)phenoxy)-2-naphthamide] | > 7.00 |
| C[C@H](NC(=O)c1ccc2c(Oc3ccc(C(F)(F)F)cc3)cccc2c1)c1cnccn1 [Compound 47, (S)—N-(1-(pyrazin-2-yl)ethyl)-5-(4-(trifluoromethyl)phenoxy)-2-naphthamide] | 6.00 to 7.00 |
| C[C@@H](NC(=O)c1ccc2c(Oc3ccc(C(F)(F)F)cc3)cccc2c1)c1c[nH]cn1 [Compound 48, (R)—N-(1-(1H-imidazol-4-yl)ethyl)-5-(4-(trifluoromethyl)phenoxy)-2-naphthamide] | > 7.00 |
| C[C@H](NC(=O)c1ccc2c(Oc3ccc(C(F)(F)F)cc3)cccc2c1)c1c[nH]cn1 [Compound 49, (S)—N-(1-(1H-imidazol-4-yl)ethyl)-5-(4-(trifluoromethyl)phenoxy)-2-naphthamide] | > 7.00 |
| C[C@H](NC(=O)c1ccc2c(Oc3ccc(C(F)(F)F)cc3)cccc2c1)C(N)=O [Compound 50, (S)—N-(1-amino-1-oxopropan-2-yl)-5-(4-(trifluoromethyl)phenoxy)-2-naphthamide] | > 7.00 |
| C[C@@H](NC(=O)c1ccc2c(Oc3ccc(C(F)(F)F)cc3)cccc2c1)C(N)=O [Compound 51, (R)—N-(1-amino-1-oxopropan-2-yl)-5-(4-(trifluoromethyl)phenoxy)-2-naphthamide] | > 7.00 |
| C[C@H](NC(=O)c1ccc2c(Oc3ccc(C(F)(F)F)cc3)cccc2c1)c1nn[nH]n1 [Compound 52, (S)—N-(1-(2H-tetrazol-5-yl)ethyl)-5-(4-(trifluoromethyl)phenoxy)-2-naphthamide] | 5.52 to 6.00 |
| O=C(NC1(c2ccccn2)CC1)c1ccc2c(Oc3ccc(C(F)(F)F)cc3)cccc2c1 [Compound 54, N-(1-(pyridin-2-yl)cyclopropyl)-5-(4-(trifluoromethyl)phenoxy)-2-naphthamide] | > 7.00 |
| C[C@H](NC(=O)c1ccc2c(Oc3ccc(C(F)(F)F)cc3)cccc2c1)c1nnnn1C [Compound 55, (S)—N-(1-(1-methyl-1H-tetrazol-5-yl)ethyl)-5-(4-(trifluoromethyl)phenoxy)-2-naphthamide] | 6.00 to 7.00 |
| C[C@@H](NC(=O)c1ccc2c(Oc3ccc(C(F)(F)F)cc3)cccc2c1)c1nnnn1C [Compound 56, (R)—N-(1-(1-methyl-1H-tetrazol-5-yl)ethyl)-5-(4-(trifluoromethyl)phenoxy)-2-naphthamide] | 6.00 to 7.00 |
| C[C@@H](NC(=O)c1ccc2c(Oc3ccc(C(F)(F)F)cc3)cccc2c1)c1nnn(C)n1 [Compound 57, (R)—N-(1-(2-methyl-2H-tetrazol-5-yl)ethyl)-5-(4-(trifluoromethyl)phenoxy)-2-naphthamide] | 6.00 to 7.00 |
| C[C@H](NC(=O)c1ccc2c(Oc3ccc(C(F)(F)F)cc3)cccc2c1)c1nnn(C)n1 [Compound 58, (S)—N-(1-(2-methyl-2H-tetrazol-5-yl)ethyl)-5-(4-(trifluoromethyl)phenoxy)-2-naphthamide] | > 7.00 |
| C[C@@H](NC(=O)c1ccc2c(Oc3ccc(C(F)(F)F)cc3)cccc2c1)C1CCC1 [Compound 59, (R)—N-(1-cyclobutylethyl)-5-(4-(trifluoromethyl)phenoxy)-2-naphthamide] | > 7.00 |
| C[C@H](NC(=O)c1ccc2c(Oc3ccc(C(F)(F)F)cc3)cccc2c1)C1CCC1 [Compound 60, (S)—N-(1-cyclobutylethyl)-5-(4-(trifluoromethyl)phenoxy)-2-naphthamide] | > 7.00 |
| C#C[C@@H](C)NC(=O)c1ccc2c(Oc3ccc(C(F)(F)F)cc3)cccc2c1 [Compound 61, (R)—N-(but-3-yn-2-yl)-5-(4-(trifluoromethyl)phenoxy)-2-naphthamide] | > 7.00 |
| C#C[C@H](C)NC(=O)c1ccc2c(Oc3ccc(C(F)(F)F)cc3)cccc2c1 [Compound 62, (S)—N-(but-3-yn-2-yl)-5-(4-(trifluoromethyl)phenoxy)-2-naphthamide] | > 7.00 |
| C[C@H](NC(=O)c1ccc2c(Oc3ccc(C(F)(F)F)cc3)cccc2c1)c1ncc[nH]1 [Compound 63, (S)—N-(1-(1H-imidazol-2-yl)ethyl)-5-(4-(trifluoromethyl)phenoxy)-2-naphthamide] | 6.00 to 7.00 |
| C[C@@H](NC(=O)c1ccc2c(Oc3ccc(C(F)(F)F)cc3)cccc2c1)c1ncc[nH]1 [Compound 64, (R)—N-(1-(1H-imidazol-2-yl)ethyl)-5-(4-(trifluoromethyl)phenoxy)-2-naphthamide] | > 7.00 |
| C[C@H](NC(=O)c1ccc2c(Oc3ccc(C(F)(F)F)cc3)cccc2c1)c1cccc(N)n1 [Compound 65, (S)—N-(1-(6-aminopyridin-2-yl)ethyl)-5-(4-(trifluoromethyl)phenoxy)-2-naphthamide] | 6.00 to 7.00 |
